Measurements as given in article PMC12275099, “VX-445 (elexacaftor) inhibits chloride secretion across human bronchial epithelial cells by directly blocking KCa3.1 channels” (PNAS Nexus, 2025).
Like-named read-outs stand apart in the source and are kept apart here.

Tests used:
[1] = test system: preconstricted mesenteric artery; design: method as in PMID 38954478; conditions: cited from earlier work
KCa3.1 = molecular target: T1, KCa3.1 (Homo sapiens, UniProt O15554); assay: Whole-cell patch-clamp on HEK cells heterologously expressing KCa3.1; type: cell-based; conditions: HEK293, VX-445 10 µM
T1 construct: expressed in transfected cells
Experimental: Our Isc results are consistent with VX-445 inhibiting KCa3.1 in HBEs. To directly assess this possibility, we initially carried out whole-cell patch-clamp studies on undifferentiated HBEs. […] Upon application of 10 µM VX-445, a majority of this current was inhibited, averaging 87 ± 4% (n = 3, P < 0.005; Fig. 3B). A summary of the current–voltage (I–V) relationship—normalized to cell capacitance—is shown in Fig. 3C, which also includes the whole-cell I–V in the presence of Tram-34. […] To ensure isolation of KCa3.1 currents and to more fully characterize this VX-445-dependent inhibition of KCa3.1, we utilized HEK cells heterologously expressing KCa3.1 (HEK-KCa3.1). Initially, we confirmed our results from HBEs, using whole-cell recordings, as above. […] In seven experiments, this inhibition averaged 58 ± 7% (P < 0.005). […] It is well recognized that drugs are carried to their targets in the blood bound to albumin, which ranges from 3.4 to 5.4%. Thus, we determined whether VX-445 (10 µM) would inhibit KCa3.1 expressed in HEK cells in the presence of 3.4% albumin. In four experiments, VX-445 inhibited an average of 51 ± 17% of the whole-cell KCa3.1 current, which is not different from that observed in the absence of albumin. To confirm the direct effect of VX-445 on KCa3.1, we utilized the excised, inside-out patch-clamp technique. The patch was then exposed to DCEBIO (100 µM) to further activate the channels ([34–37])—analogous to our Isc studies in HBEs. […] In three experiments, VX-445 inhibited an average of 63 ± 6% of the KCa3.1 current. Based on these experiments, we determined the apparent inhibitory constant, Ki for VX-445. For these experiments, patches were excised into saturating Ca^2+ (3 µM) to ensure maximal KCa3.1 activation. These studies were carried out in the absence of DCEBIO to eliminate the possibility that the inhibition observed was due to competition for the DCEBIO-binding site.
HEK cells stably expressing KCa3.1 (IK1, SK4), KCa2.3 (SK3), and KCa2.2 (SK2) were generated and cultured as previously described by us ([37], [66–71]).
HEK cells expressing the channel of interest were plated onto poly-L-lysine-coated glass coverslips 1–2 days prior to patch-clamp analysis. Electrophysiological recordings in the excised, inside-out, and whole-cell patch-clamp configurations were performed as recently described ([14]). For excised patch-clamp recordings, the pipette solution contained (in mM): 140 K-gluconate, 5 KCl, 1 CaCl2, 1 MgCl2, and 10 HEPES. The pH was adjusted to 7.2 with KOH. The bath solution contained (in mM): 145 K-gluconate, 5 KCl, 1.3 MgCl2, 10 HEPES, and 1 EGTA. Sufficient CaCl2 was added to obtain the desired free Ca^2+ concentration at a pH of 7.2 (adjusted with KOH). When recording KCa3.1 channels, ATP (300 µM) was added to the bath to diminish channel rundown ([73]). All recordings were carried out at a voltage of −100 mV, referenced to the extracellular compartment, as is standard. The apparent Ki and Hill coefficient for each CFTR corrector on KCa3.1, KCa2.3, and KCa2.2 were determined during a continuous recording by step-wise addition of increasing concentrations of compound and fitting the resultant relative remaining current to a Hill equation (Prism v. 10.1.0). The zero current level was determined by the addition of a 0 Ca^2+ solution (zero-added Ca^2+ plus 1 mM EGTA) at the end of the experiment. In the case of KCa3.1, TRAM-34, a known inhibitor of KCa3.1 ([45]), was used to confirm expression of the channel. For whole-cell experiments, pipettes contained (in mM): 145 K-gluconate, 10 EGTA, 7.5 CaCl2, 2 MgCl2, 3 mM NaATP, and 10 HEPES. The bath solution contained (in mM): 140 K-gluconate, 5 KCl, 1.0 MgCl2, 10 HEPES, and 2 CaCl2. Current–voltage relationships were determined by stepping from a holding potential of −80 mV to +80 mV in 20 mV increments for 400 ms. […]

WT CFTR HBEs = assay: Ussing chamber Isc, DCEBIO-induced Cl- secretion; type: cell-based, human; conditions: VX-445 10 µM
Description: Primary human bronchial epithelial cells (HBEs) were collected from unused or discarded samples from the Center for Organ Recovery and Education via the University of Pittsburgh Pulmonary, Allergy, Critical Care, and Sleep Medicine Lung Biobank and Repository. All experimental procedures involving the use of HBEs were approved by the institutional review board (IRB STUDY19090084) and the Committee for Oversight of Research and Clinical Training Involving Decedents (CORID number 451) at the University of Pittsburgh. At all times, authors were blind to the identity of HBE donors. HBEs were cultured using the Vertex method ([72]). Studies were carried out on WT CFTR HBEs from 11 ([13]) donors and homozygous F508del/F508del CFTR HBEs from five ([5]) separate donors. HBEs were plated on Costar Transwell permeable supports ([…], 6.5 mm insert, polyester membrane, Corning) and grown at an air–liquid interface for 5+ weeks in HBE differentiation medium containing 2% Ultroser-G. Basolateral media were replaced three times per week. For whole-cell patch-clamp studies, HBEs were maintained in BronchiaLife airway media (LifeLine Cell Technology, LS-1047) and plated onto poly-L-lysine-coated coverslips (see below).
Costar Transwell inserts were mounted in a modified Ussing chamber (P2300, Physiologic Instruments) and the monolayers continuously short-circuited (VCC MC8, Physiologic Instruments) by forcing the transepithelial voltage to 0 mV. Short-circuit current (Isc) measurements were taken in symmetric solutions, containing (in mM): 120 NaCl, 25 NaHCO3, 3.3 KH2PO4, 0.8 K2HPO4, 1.2 CaCl2, 1.2 MgCl2, and 10 glucose. The pH of the solution is 7.4 when gassed with 95% O2–5% CO2 at 37°C. Compounds were added cumulatively following the establishment of a new stable current response. Amiloride was added to the apical membrane, while all other compounds were added to both membranes due to their lipophilic nature. In all experiments, 10 µM amiloride was used to inhibit sodium absorption. Percent inhibition was calculated as the change in Isc (ΔIsc) between the forskolin or DCEBIO stable current level and the Isc following addition of the compound being assessed divided by the ΔIsc between the stable forskolin- or DCEBIO-induced Isc and the Isc following bumetanide addition.

For Cc1nn(C)cc1S(=O)(=O)NC(=O)c1ccc(-n2ccc(OCC(C)(C)C(F)(F)F)n2)nc1N1C[C@@H](C)CC1(C)C [VX-445, elexacaftor], the “effect on preconstricted mesenteric artery” value [1] is listed as “capable of relaxing preconstricted mesenteric artery”, the inhibition at 10 µM (KCa3.1; four experiments, read-out: inhibition of whole-cell KCa3.1 current in the presence of 3.4% albumin) is listed as 51 ± 17% and the inhibition at 10 µM (KCa3.1; seven experiments, read-out: inhibition of whole-cell KCa3.1 current) is listed as 58 ± 7%. For the same compound, the inhibition at 10 µM (WT CFTR HBEs; Homo sapiens, four donors, n = 12 (TRAM-34 series), read-out: inhibition of the DCEBIO-induced current) was 69 ± 3% and the “decrease of the DCEBIO-induced Cl- current” value (WT CFTR HBEs; n = 19) was 54 ± 2%.
